Values after ≈ are worked out from the molar mass of the structure shown.
How the values were obtained:
Candida albicans ON28 = test: Minimum inhibitory concentration (MIC) against Candida albicans ON28; format: cell-based; details: ON28, 72 h, TC broth medium, 10^4 spores/ml, 37° C., 3 days
Experimental: (§1) MIC was determined in accordance with the method of M. S. Marriott [25th Interscience Conference on Antimicrobial Agents and Chemotherapy, p. 243 (1985)].
(§2) Candida albicans ON28 was cultured in a sabouraud dextrose agar medium containing 10 g of neopeptone, 20 g of glucose and 15 g of agar per liter, at 30° C. for 1-2 days. The yeast cells were suspended in sterile distilled water. Separately, Aspergillus fumigatus IFO8868 was cultured in a potato dextrose agar medium (manufactured by Nissui Pharmaceutical Co., Ltd.) at 30° C. until the conidia were formed abundantly. The formed conidia were suspended in a sterile physiological saline containing 0.1% of Tween 80. Each of the Candida albicans suspension and the Aspergillus fumigatus suspension was inoculated into a TC broth medium (containing 1.17 g of an yeast carbon base, 0.25 g of ammonium sulfate, 2.0 ml of a 50-fold concentrate of L-glutamic acid-containing MEM amino acid, 20 ml of a 0.5M phosphate buffer of pH 7.5 and 1.33 ml of 7.5% sodium hydrogencarbonate per 100 ml) containing a test compound, so that the final fungal amount became 10^4 spores/ml. Then, culture was conducted at 37° C. for 3 days. Thereafter, the growth of fungi was examined. The minimum concentration of test compound at which the growth of fungi had been inhibited, was taken as MIC (μg/ml).

[1] = tested on: Aspergillus fumigatus IFO8868; test: Minimum inhibitory concentration (MIC) against Aspergillus fumigatus IFO8868; format: cell-based; details: IFO8868, 72 h, TC broth medium, 10^4 spores/ml, 37° C., 3 days
Experimental: as §1, §2

Compound	MIC (Candida albicans ON28)	MIC [1]
CCCNC(=O)C(F)(F)C(O)(Cn1cncn1)c1ccc(F)cc1F (stereo not shown) [Example 16]	≤ 0.05 µg/mL	25 µg/mL (≈ 69.4 µM)
O=C(NC1CC1)C(F)(F)C(O)(Cn1cncn1)c1ccc(F)cc1Cl (single isomer, unassigned) [Example 148]	0.1 µg/mL (≈ 0.267 µM)	3.13 µg/mL (≈ 8.35 µM)
CCNC(=O)C(F)(F)C(O)(Cn1cncn1)c1ccc(Cl)cc1F (stereo not shown) [Example 83]	0.1 µg/mL (≈ 0.276 µM)	25 µg/mL (≈ 68.9 µM)
O=C(Nc1ccc(C(F)(F)F)cc1)C(F)(F)C(O)(Cn1cncn1)c1ccc(F)cc1F (stereo not shown) [Example 136]	0.025 µg/mL (≈ 0.0541 µM)	12.5 µg/mL (≈ 27 µM)
O=C(NC1CC1)C(F)(F)C(O)(Cn1cncn1)c1ccc(Cl)cc1Cl (stereo not shown) [Example 85]	0.1 µg/mL (≈ 0.256 µM)	12.5 µg/mL (≈ 32 µM)
CC(C)CNC(=O)C(F)(F)C(O)(Cn1cncn1)c1ccc(F)cc1F (stereo not shown) [Example 35]	≤ 0.05 µg/mL	25 µg/mL (≈ 66.8 µM)
COc1ccccc1NC(=O)C(F)(F)C(O)(Cn1cncn1)c1ccc(F)cc1F (stereo not shown) [Example 45]	≤ 0.05 µg/mL	50 µg/mL (≈ 118 µM)
N#CCc1ccc(NC(=O)C(F)(F)C(O)(Cn2cncn2)c2ccc(F)cc2F)cc1 (stereo not shown) [Example 138]	0.1 µg/mL (≈ 0.231 µM)	12.5 µg/mL (≈ 28.8 µM)
Cc1ccc(NC(=O)C(F)(F)C(O)(Cn2cncn2)c2ccc(F)cc2F)c(C)c1 (stereo not shown) [Example 44]	≤ 0.05 µg/mL	1.56 µg/mL (≈ 3.69 µM)
O=C(NC1CC1)C(F)(F)C(O)(Cn1cncn1)c1ccccc1Cl (stereo not shown) [Example 3]	0.39 µg/mL (≈ 1.09 µM)	12.5 µg/mL (≈ 35 µM)
CCNC(=O)C(F)(F)C(O)(Cn1cncn1)c1ccc(F)cc1F (single isomer, unassigned) [Example 144]	0.1 µg/mL (≈ 0.289 µM)	6.25 µg/mL (≈ 18 µM)
O=C(NC1CCCC1)C(F)(F)C(O)(Cn1cncn1)c1ccc(F)cc1F (stereo not shown) [Example 20]	≤ 0.05 µg/mL	100 µg/mL (≈ 259 µM)
CCNC(=O)C(F)(F)C(O)(Cn1cncn1)c1ccccc1Cl (stereo not shown) [Example 75]	0.2 µg/mL (≈ 0.58 µM)	6.25 µg/mL (≈ 18.1 µM)
Cc1ccc(NC(=O)C(F)(F)C(O)(Cn2cncn2)c2ccc(F)cc2F)cc1 (stereo not shown) [Example 43]	≤ 0.05 µg/mL	25 µg/mL (≈ 61.2 µM)
O=C(NC1CCCCC1)C(F)(F)C(O)(Cn1cncn1)c1ccc(F)cc1F (stereo not shown) [Example 21]	≤ 0.05 µg/mL	100 µg/mL (≈ 250 µM)
O=C(NC1CC1)C(F)(F)C(O)(Cn1cncn1)c1ccccc1F (stereo not shown) [Example 8, N-cyclopropyl-2,2-difluoro-3-(2-fluorophenyl)-3-hydroxy-4-(1H-1,2,4-triazol-1-yl)butanamide]	0.78 µg/mL (≈ 2.29 µM)	25 µg/mL (≈ 73.5 µM)
CC1CN(C(=O)C(F)(F)C(O)(Cn2cncn2)c2ccc(F)cc2F)CC(C)O1 (stereo not shown) [Example 39, 4-[3-(2,4-difluorophenyl)-2,2-difluoro-3-hydroxy-4-(1H-1,2,4-triazol-1-yl)butanoyl]-2,6-dimethylmorpholine]	6.25 µg/mL (≈ 15 µM)	100 µg/mL (≈ 240 µM)
O=C(Nc1ccc(Cl)cc1)C(F)(F)C(O)(Cn1cncn1)c1ccc(F)cc1F (stereo not shown) [Example 42, N-(4-chlorophenyl)-3-(2,4-difluorophenyl)-2,2-difluoro-3-hydroxy-4-(1H-1,2,4-triazol-1-yl)butanamide]	≤ 0.05 µg/mL	50 µg/mL (≈ 117 µM)
CCNC(=O)C(F)(F)C(O)(Cn1cncn1)c1cc(F)ccc1F (stereo not shown) [Example 117]	0.39 µg/mL (≈ 1.13 µM)	25 µg/mL (≈ 72.2 µM)
CCNC(=O)C(F)(F)C(O)(Cn1cncn1)c1ccc(F)cc1Cl (stereo not shown) [Example 81]	0.1 µg/mL (≈ 0.276 µM)	3.13 µg/mL (≈ 8.63 µM)
C=CCNC(=O)C(F)(F)C(O)(Cn1cncn1)c1ccc(F)cc1F (stereo not shown) [Example 17]	0.1 µg/mL (≈ 0.279 µM)	12.5 µg/mL (≈ 34.9 µM)
CCNC(=O)C(F)(F)C(O)(Cn1cncn1)c1ccccc1 (stereo not shown) [Example 69]	0.39 µg/mL (≈ 1.26 µM)	50 µg/mL (≈ 161 µM)
CCCCNC(=O)C(F)(F)C(O)(Cn1cncn1)c1ccc(F)cc1F (stereo not shown) [Example 114]	0.05 µg/mL (≈ 0.134 µM)	12.5 µg/mL (≈ 33.4 µM)
CNC(=O)C(F)(F)C(O)(Cn1cncn1)c1ccccc1F (stereo not shown) [Example 72]	0.39 µg/mL (≈ 1.24 µM)	50 µg/mL (≈ 159 µM)
NC(=O)C(F)(Cc1ccccc1)C(O)(Cn1cncn1)c1ccc(F)cc1F (stereo not shown) [Example 56]	0.39 µg/mL (≈ 0.999 µM)	100 µg/mL (≈ 256 µM)
O=C(NCc1ccc(Cl)cc1)C(F)(F)C(O)(Cn1cncn1)c1ccc(F)cc1F (stereo not shown) [Example 22]	≤ 0.05 µg/mL	12.5 µg/mL (≈ 28.2 µM)
